Values after ≈ are worked out from the molar mass of the structure shown. Values joined by “and” are separate entries in the source; they are usually repeats but may differ in a detail not shown here. Identical values can stand only once. Values belong to the compound of their own block, whether it stands above or below them.
Tests used:
[1] = Metabolic stability in liver S9; assay type: in vitro ADME; details: Human, test conc. 3 μM
[2] = Metabolic stability in liver S9; assay type: in vitro ADME, cynomolgus monkey; details: Monkey, test conc. 3 μM
[3] = Metabolic stability in liver S9; assay type: in vitro ADME, beagle dog; details: Dog, test conc. 3 μM
[4] = Metabolic stability in liver S9; assay type: in vitro ADME, Sprague-Dawley rat; details: Rat, test conc. 3 μM
[5] = Metabolic stability in liver S9; assay type: in vitro ADME, CD-1 mouse; details: Mouse, test conc. 3 μM
[6] = Metabolic stability in intestinal S9; assay type: in vitro ADME; details: Human, test conc. 3 μM
[7] = Metabolic stability in intestinal S9; assay type: in vitro ADME, cynomolgus monkey; details: Monkey, test conc. 3 μM
[8] = Metabolic stability in intestinal S9; assay type: in vitro ADME, beagle dog; details: Dog, test conc. 3 μM
[9] = Metabolic stability in intestinal S9; assay type: in vitro ADME, Sprague-Dawley rat; details: Rat, test conc. 3 μM
[10] = Metabolic stability in intestinal S9; assay type: in vitro ADME, CD-1 mouse; details: Mouse, test conc. 3 μM
[11] = Metabolic stability in plasma; assay type: in vitro ADME; details: Human, test conc. 3 μM
[12] = Metabolic stability in plasma; assay type: in vitro ADME; details: cynomolgus, Monkey, test conc. 3 μM
[13] = Metabolic stability in plasma; assay type: in vitro ADME, beagle dog; details: Dog, test conc. 3 μM
[14] = Metabolic stability in plasma; assay type: in vitro ADME; details: Sprague-Dawley, Rat, test conc. 3 μM
[15] = Metabolic stability in plasma; assay type: in vitro ADME, CD-1 mouse; details: CD-1, plasma; Mouse; test conc. 3 μM
[16] = Single ascending dose pharmacokinetics, Solutol HS-15:Water (10:90); assay type: in vivo, Beagle dogs; details: Compound 1 300 mg/kg PO, non-fasted
[17] = Oral dosing formulation in Solutol HS-15:Water, solution/emulsion stability; assay type: physicochemical
Procedure: (§1) This study included dose concentrations ranging from 2-120 mg/mL.
as §1

[18] = system: ESBL-expressing Enterobacteriaceae (n = 33); assay: Broth microdilution MIC, ceftibuten/Compound 2 vs IV comparators; assay type: cell-based
[19] = system: KPC-expressing Enterobacteriaceae (n = 77); assay: organism not typed; assay type: cell-based
[20] = system: AmpC/CMY-expressing Enterobacteriaceae (n = 44); assay: Broth microdilution MIC, ceftibuten/Compound 2 vs IV comparators; assay type: cell-based
[21] = system: OXA-48-expressing Enterobacteriaceae (n = 39); assay: as above
[22] = Solutol HS-15:Water (10:90 v/v)
[23] = Solutol HS-15:Water (20:80 v/v)

- half-life at 3 μM ([1]; liver S9): 3.4 min
- half-life at 3 μM ([2]; cynomolgus, liver S9): 4.3 min
- half-life at 3 μM ([3]; beagle, liver S9): 4.7 min
- half-life at 3 μM ([4]; Sprague-Dawley, liver S9): 10.2 min
- half-life at 3 μM ([5]; CD-1, liver S9): 2.4 min
- half-life at 3 μM ([6]; intestinal S9): 35.6 min
- half-life at 3 μM ([7]; cynomolgus, intestinal S9): 16.9 min
- half-life at 3 μM ([8]; beagle, intestinal S9): > 120 min
- half-life at 3 μM ([9]; Sprague-Dawley, intestinal S9): 7.4 min
- half-life at 3 μM ([10]; CD-1, intestinal S9): 2.5 min
- half-life at 3 μM ([11]; plasma): 4.8 min
- half-life at 3 μM [12]: 12.4 min
- half-life at 3 μM ([13]; beagle, plasma): 26.2 min
- half-life at 3 μM [14]: 0.8 min
- half-life at 3 μM [15]: 0.6 min
SMILES: COCC1=C(C(=O)OC(C)OC(=O)OC(C)C)N2C(=O)[C@@H](NC(=O)/C(=N\OC)c3csc(N)n3)[C@H]2SC1 (stereo partly shown) [Cefpodoxime proxetil]

SMILES: CCC(=O)N[C@H]1Cc2cccc(C(=O)OCOC(=O)C(CC)CC)c2OB1O [Compound 1, ((2-Ethylbutanoyl)oxy)methyl (R)-2-hydroxy-3-propionamido-3,4-dihydro-2H-benzo[e][1,2]oxaborinine-8-carboxylate]
- dogs exhibiting emesis [16]: 3 of 4
- Liver S9 Half-life [1]: 1.0 min
- Liver S9 Half-life [2]: 0.8 min
- Liver S9 Half-life [3]: 0.5 min
- Liver S9 Half-life [4]: 2.3 min
- Liver S9 Half-life [5]: 1.2 min
- Intestinal S9 Half-life [6]: 2.9 min
- Intestinal S9 Half-life [7]: 11.2 min
- Intestinal S9 Half-life [8]: 49.0 min
- Intestinal S9 Half-life [9]: 3.9 min
- Intestinal S9 Half-life [10]: 1.1 min
- Plasma Half-life [11]: 10.7 min
- half-life at 3 μM [12]: 22 min
- Plasma Half-life [13]: 43.9 min
- half-life at 3 μM [14]: 1.6 min
- half-life at 3 μM [15]: 4.6 min
- homogeneous and chemically-stable solution up to a concentration [17, 22]: ≤ 30 mg/mL
- physically- and chemically-stable emulsion at concentrations [17, 22]: 31 to 100 mg/mL
- homogeneous and chemically-stable solution up to a concentration [17, 23]: ≤ 60 mg/mL
- physically- and chemically-stable emulsion at concentrations [17, 23]: 61 to 200 mg/mL

SMILES: NC[C@H]1O[C@H](O[C@H]2[C@H](O)[C@@H](O[C@H]3O[C@H](CO)[C@@H](O)[C@H](N)[C@H]3O)[C@H](N)C[C@@H]2N)[C@H](N)C[C@@H]1O [Tobramycin]
- Number of strains at MIC value 0.5 mg/L ([18]; ESBL-expressing (n = 33)): 3
- Number of strains at MIC value 1 mg/L ([18]; ESBL-expressing (n = 33)): 5
- Number of strains at MIC value 2 mg/L ([18]; ESBL-expressing (n = 33)): 2
- Number of strains at MIC value 4 mg/L ([18]; ESBL-expressing (n = 33)): 1
- Number of strains at MIC value 8 mg/L ([18]; ESBL-expressing (n = 33)): 1
- Number of strains at MIC value 16 mg/L ([18]; ESBL-expressing (n = 33)): 4
- Number of strains at MIC value […] ([18]; ESBL-expressing (n = 33)): 0
- Number of strains at MIC value ≤0.06 mg/L ([18]; ESBL-expressing (n = 33)): 0
- Number of strains at MIC value ≥32 mg/L ([18]; ESBL-expressing (n = 33)): 17
- MIC50 ([18]; iv): ≥ 32 µg/mL
- MIC90 ([18]; iv): ≥ 32 µg/mL
- Number of strains at MIC value 0.5 mg/L ([19]; KPC-expressing (n = 77)): 3
- Number of strains at MIC value 1 mg/L ([19]; KPC-expressing (n = 77)): 0
- Number of strains at MIC value 2 mg/L ([19]; KPC-expressing (n = 77)): 2
- Number of strains at MIC value 4 mg/L ([19]; KPC-expressing (n = 77)): 0
- Number of strains at MIC value 8 mg/L ([19]; KPC-expressing (n = 77)): 3
- Number of strains at MIC value 16 mg/L ([19]; KPC-expressing (n = 77)): 3
- Number of strains at MIC value […] ([19]; KPC-expressing (n = 77)): 0 and 1
- Number of strains at MIC value ≤0.06 mg/L ([19]; KPC-expressing (n = 77)): 0
- Number of strains at MIC value ≥32 mg/L ([19]; KPC-expressing (n = 77)): 65
- MIC50 ([19]; iv): ≥ 32 µg/mL
- MIC90 ([19]; iv): ≥ 32 µg/mL
- Number of strains at MIC value 0.5 mg/L ([20]; AmpC/CMY-expressing (n = 44)): 2
- Number of strains at MIC value 1 mg/L ([20]; AmpC/CMY-expressing (n = 44)): 2
- Number of strains at MIC value 2 mg/L ([20]; AmpC/CMY-expressing (n = 44)): 0
- Number of strains at MIC value 4 mg/L ([20]; AmpC/CMY-expressing (n = 44)): 3
- Number of strains at MIC value 8 mg/L ([20]; AmpC/CMY-expressing (n = 44)): 3
- Number of strains at MIC value 16 mg/L ([20]; AmpC/CMY-expressing (n = 44)): 6
- Number of strains at MIC value […] ([20]; AmpC/CMY-expressing (n = 44)): 0
- Number of strains at MIC value ≤0.06 mg/L ([20]; AmpC/CMY-expressing (n = 44)): 0
- Number of strains at MIC value ≥32 mg/L ([20]; AmpC/CMY-expressing (n = 44)): 28
- MIC50 ([20]; iv): ≥ 32 µg/mL
- MIC90 ([20]; iv): ≥ 32 µg/mL
- MIC50 [21]: 16 µg/mL (≈ 34.2 µM)
- MIC90 [21]: ≥ 32 µg/mL

Source: patent publication US12544395B2, “Combination compositions comprising a beta-lactamase inhibitor and uses thereof” (priority 2018, dated 2026)
